Measurements taken from patent US20240196889A1, “USE OF DI- AND TRI[…] ACIDS IN THE PREVENTION OF BIOFILM FORMATION” (priority 2020, published 2024).

Assays:
[1] = test system: S. Typhimurium ATCC 14028; assay: Petri dish biofilm assay (CFU); format: cell-based, Salmonella enterica serovar Typhimurium; conditions: 100 μM, 48 h, 25° C.
Method: ONCs of S. Typhimurium ATCC 14028 were normalized to an OD595 of 3.2 and diluted 1/100 in a small (60 mm Ø) glass Petri dishes containing 10 ml of 1/20 TSB to which a final concentration of 100 μM agaric or the corresponding amount of DMSO was added. Around 12*10^7 ml^−1 cells were inoculated and incubated under static conditions at 25° C. for 48 h. Afterwards, the liquid above the biofilms was poured off and the biofilms were scraped off the bottom of the plate in 1 ml of PBS, passed through a syringe (25 G) and vortexed to break down the biofilm structure and ensure an homogenous suspension during dilution [Hermans et al. (2011). Journal of microbiological methods 84, 467-478]. The number of colony forming units (CFU) of biofilms was determined by plating.

[2] = test system: Salmonella Typhimurium ATCC 14028; assay: Staining of flagella; format: cell-based, Salmonella enterica serovar Typhimurium; conditions: 100 μM vs DMSO, 24 h
Method: An ONC of Salmonella Typhimurium ATCC 14028 was diluted 1/100 in 5 ml TSB 1/20, with either a final concentration of 100 μM agaric or the corresponding amount of DMSO as a control. The planktonic cultures were incubated for 24 h at 25° C., shaking at 200 rpm. The flagella were stained according to Kearns and Losick (2003) Molecular microbiology 49, 581-590. Briefly, the stain consist of ten parts mordant (2 g tannic acid, 10 ml 5% phenol, 10 ml saturated aqueous AIK(SO4)2) mixed with one part stain (12% crystal violet in ethanol). 3 μl of sample was applied to a microscopic slide and covered with a 22 mm×40 mm coverslip. After placing the slide vertically, 10 μl was applied to the top edge of the coverslip in order to stain the sample due to capillary forces. Samples were visualized with phase contrast using a Zeiss Axio Imager Z1 microscope with an EC Plan Neofluar (×100 magnification/1.3 numerical aperture) objective.

Salmonella = assay: Soft agar swimming assay; format: cell-based, Salmonella enterica serovar Typhimurium; conditions: 100 μM, 0.25% agar, 24 h, 25° C.
Method: Based on Kim & Surette (2003) Biol Proced Online 5, 189-196, swimming plates were made by mixing 30 ml TSB 1/20 with 0.25% agar. These plates contained either a final concentration of 100 μM agaric or the corresponding amount of DMSO. After 2 h drying at room temperature, 3 μl of an overnight culture was inoculated by piercing the surface of the agar with the pipette tip. The plates were incubated upright for 24 h at 25° C., afterwards the size of the halo was measured and visually recorded.

S. aureus SH1000 = assay: Antibiofilm assay (Calgary biofilm device); format: cell-based, Staphylococcus aureus
Method: A static peg assay for the prevention of bacterial biofilm formation was used as described previously. A lid carrying 96 polystyrene pegs was fitted into a microtiter plate with a peg hanging into each well. Two-fold serial dilutions of the compounds in 100 μl liquid broth per well were prepared in the microtiter plate. Subsequently, an overnight culture was diluted 1:100 into the respective liquid broth, and 100 μl (˜10^6 cells) was added to each well of the microtiter plate, resulting in a total amount of 200 μl medium per well. After placing the lid on the microtiter plate, samples containing Salmonella, Pseudomonas or E. coli were incubated statically in TSB 1/20 for 48 h at 25° C., whereas S. aureus was incubated in undiluted TSB at 37° C. for 48 h. After incubation, the lid was removed from the microtiter plate and liquid culture was transferred to a new microtiter plate prior to determining the prior to determining the planktonic growth in each well via OD600 measurements using a Synergy MX multimode reader (Biotek, Winooski, VT). The pegs were washed once in 200 μl PBS and the remaining attached bacteria were stained for 30 min with 200 μl 0.1% crystal violet in an isopropanol-methanol-PBS solution (1:1:18). Excess stain was washed off by placing the pegs in a 96-well plate filled with 200 μl distilled water per well. Afterwards, the pegs were air dried for 30 min and the dye bound to the adherent cells dissolved into 200 μl 30% glacial acetic acid. The OD570 of each well was measured using a Synergy MX multimode reader. Data was analysed using the GraphPad Prism 6 software.

[3] = test system: S. Typhimurium SL1344 (S1), S. Typhimurium ATCC14028 (S2) and E. coli MG1655 (E1); assay: Mixed-species biofilm assay (CFU); format: cell-based, Salmonella Typhimurium and E. coli
Text: In situ, biofilms are typically complex communities consisting of various bacterial strains and species [Elias & Banin (2012) FEMS Microbiol Rev 36, 990-1004; Burmølle et al. (2014) Trends Microbiol 22, 84-91; Giaouris et al. (2015) Front Microbiol 6, Article 841; Mitri & Richard Foster (2013) Communities. Annual Review of Genetics 47, 247-273]. […] Microbial ecology 68, 146-154]. Hereto, a a previously characterized model community was utilized consisting of two Salmonella and one E. coli strain (S. Typhimurium SL1344 (S1), S. Typhimurium ATCC14028 (S2) and E. coli MG1655 (E1)). […] The reduced biofilm productivity of the mixed-species community is mainly due to the inhibition of the S2 strain (FIG. 6B). The lack of […] inhibition in mixed-species conditions is possibly due to agaric acid weakening the competitive interactions experienced by S1 (FIG. 6C). […] Consequently, […] detected the damage imposed by competition via its stress response systems and induces a competitive response. […] Therefore, it was subsequently explored whether agaric acid can interfere with the increased tolerance in mixed-species conditions by weakening the competition and preventing the induction of this competitive response.
ONCs of S1, S2 and E1 were normalized to an OD595 of 3.2 and added to a small (60 mm Ø) glass Petri dishes containing 10 ml of 1/20 TSB. The three strain were inoculated in a 1:1:1 ratio and incubated under static conditions at 25° C. for 48 h. The same total number of cells was inoculated in mono- and mixed-species conditions (˜12*10^7 cells ml^−1). Afterwards, the liquid above the biofilms was poured off and the biofilms were scraped off the bottom of the plate in 1 ml of PBS, passed through a syringe (25 G) and vortexed to break down the biofilm structure and ensure an homogenous suspension during dilution. The number of colony forming units (CFU) of biofilms was determined by plating. To differentiate between the strains, S1 was labelled with constitutive gfpmut3 on a plasmid, while S2 and E1 were labelled with plasmid-encoded constitutive dsRed.T4. […]

CCCCCCCCCCCCCCCCC(C(=O)O)C(O)(CC(=O)O)C(=O)O (stereo not shown) [Agaric acid, 2-hydroxynonadecane-1,2,3-tricarboxylic acid]
number of cells (CFU) attaching to bottom of glass petri dish [1]: significantly inhibits the number of Salmonella cells attaching to the surface | flagellar appearance [2]: no differences in flagellar appearance | swimming motility (halo formation) (Salmonella): no halo was formed | swimming motility (halo formation) (Salmonella; listed as agaric acid): almost completely inhibited motility | planktonic growth (OD600) (S. aureus SH1000): inhibits | biofilm inhibition versus bactericidal effect (S. aureus SH1000; comparison of effective concentrations): biofilm inhibition occurred already at a lower concentration than the bactericidal effect | biofilm formation (S. aureus SH1000; crystal violet staining, undiluted TSB, 37° C., 48 h): inhibits | competition experienced by S1 in presence of S2 and E1 [3]: weakens the competition experienced by S1 | biofilm formation of S2 strain in the mixed-species community ([3]; 100 μM): significantly inhibited | number of biofilm cells of mixed-species consortium attached to abiotic surface ([3]; S1, S2 and E1 1:1:1, 48 h, 25° C.): significantly reduced the number of biofilm cells
